# From ChEMBL document CHEMBL3991601, “The target landscape of clinical kinase drugs” (Science, 2017)
# Structures can show the parent of a compound that is named as a salt. The source made the active and inactive calls. Cut-off read from the data, not from the text of the source, for most assays here: actives have a measured Kd and inactives only a lower limit.
# How the values were obtained:
# [1] = molecular target: T1, NUAK family SNF1-like kinase 2 (Homo sapiens, UniProt Q9H093)
# T1 sequence (Q9H093 whole entry): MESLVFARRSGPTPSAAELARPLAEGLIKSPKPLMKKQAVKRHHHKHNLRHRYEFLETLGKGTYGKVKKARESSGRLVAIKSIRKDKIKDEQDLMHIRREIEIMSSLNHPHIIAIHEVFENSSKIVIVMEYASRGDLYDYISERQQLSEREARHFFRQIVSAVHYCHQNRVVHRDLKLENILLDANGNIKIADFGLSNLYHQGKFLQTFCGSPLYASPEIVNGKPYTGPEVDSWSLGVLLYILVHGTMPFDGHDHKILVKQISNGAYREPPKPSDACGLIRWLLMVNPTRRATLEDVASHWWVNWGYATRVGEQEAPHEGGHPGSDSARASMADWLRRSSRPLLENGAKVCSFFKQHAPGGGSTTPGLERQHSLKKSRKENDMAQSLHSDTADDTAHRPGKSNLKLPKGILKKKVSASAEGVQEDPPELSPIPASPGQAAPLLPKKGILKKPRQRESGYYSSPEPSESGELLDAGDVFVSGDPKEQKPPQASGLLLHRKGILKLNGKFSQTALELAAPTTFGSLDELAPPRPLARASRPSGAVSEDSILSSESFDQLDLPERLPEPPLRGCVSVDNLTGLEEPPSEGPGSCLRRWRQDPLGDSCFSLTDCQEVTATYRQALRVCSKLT
# [2] = molecular target: 26S proteasome regulatory subunit 6B (Homo sapiens, UniProt P43686)
# [3] = molecular target: T2, Mitogen-activated protein kinase kinase kinase kinase 2 (Homo sapiens, UniProt Q12851)
# T2 sequence (Q12851 whole entry): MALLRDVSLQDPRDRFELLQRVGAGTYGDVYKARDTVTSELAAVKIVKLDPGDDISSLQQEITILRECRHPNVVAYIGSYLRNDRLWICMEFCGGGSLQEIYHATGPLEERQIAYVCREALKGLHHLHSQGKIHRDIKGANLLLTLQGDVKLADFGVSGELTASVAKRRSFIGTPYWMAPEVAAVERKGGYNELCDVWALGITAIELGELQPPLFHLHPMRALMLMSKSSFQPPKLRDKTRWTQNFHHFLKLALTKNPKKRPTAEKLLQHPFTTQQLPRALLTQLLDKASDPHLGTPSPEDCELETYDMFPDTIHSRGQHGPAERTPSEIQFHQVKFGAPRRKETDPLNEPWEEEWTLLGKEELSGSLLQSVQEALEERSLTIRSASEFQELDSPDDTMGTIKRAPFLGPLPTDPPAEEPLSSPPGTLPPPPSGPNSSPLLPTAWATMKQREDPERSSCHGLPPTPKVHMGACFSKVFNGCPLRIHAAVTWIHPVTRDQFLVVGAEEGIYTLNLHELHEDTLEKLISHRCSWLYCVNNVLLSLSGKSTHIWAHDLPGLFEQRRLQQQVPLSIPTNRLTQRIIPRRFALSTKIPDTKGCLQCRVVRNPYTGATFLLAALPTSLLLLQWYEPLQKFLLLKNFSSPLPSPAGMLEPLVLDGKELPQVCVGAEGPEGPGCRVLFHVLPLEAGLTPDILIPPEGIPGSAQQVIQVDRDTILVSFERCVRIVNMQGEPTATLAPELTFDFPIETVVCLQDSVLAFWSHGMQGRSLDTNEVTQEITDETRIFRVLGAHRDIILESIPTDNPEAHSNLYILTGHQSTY
# [4] = molecular target: Mitogen-activated protein kinase kinase kinase kinase 5 (Homo sapiens, UniProt Q9Y4K4)
# [5] = molecular target: Receptor-interacting serine/threonine-protein kinase 2 (Homo sapiens, UniProt O43353)
# [6] = molecular target: T3, Serine/threonine-protein kinase TBK1 (Homo sapiens, UniProt Q9UHD2)
# T3 sequence (Q9UHD2 whole entry): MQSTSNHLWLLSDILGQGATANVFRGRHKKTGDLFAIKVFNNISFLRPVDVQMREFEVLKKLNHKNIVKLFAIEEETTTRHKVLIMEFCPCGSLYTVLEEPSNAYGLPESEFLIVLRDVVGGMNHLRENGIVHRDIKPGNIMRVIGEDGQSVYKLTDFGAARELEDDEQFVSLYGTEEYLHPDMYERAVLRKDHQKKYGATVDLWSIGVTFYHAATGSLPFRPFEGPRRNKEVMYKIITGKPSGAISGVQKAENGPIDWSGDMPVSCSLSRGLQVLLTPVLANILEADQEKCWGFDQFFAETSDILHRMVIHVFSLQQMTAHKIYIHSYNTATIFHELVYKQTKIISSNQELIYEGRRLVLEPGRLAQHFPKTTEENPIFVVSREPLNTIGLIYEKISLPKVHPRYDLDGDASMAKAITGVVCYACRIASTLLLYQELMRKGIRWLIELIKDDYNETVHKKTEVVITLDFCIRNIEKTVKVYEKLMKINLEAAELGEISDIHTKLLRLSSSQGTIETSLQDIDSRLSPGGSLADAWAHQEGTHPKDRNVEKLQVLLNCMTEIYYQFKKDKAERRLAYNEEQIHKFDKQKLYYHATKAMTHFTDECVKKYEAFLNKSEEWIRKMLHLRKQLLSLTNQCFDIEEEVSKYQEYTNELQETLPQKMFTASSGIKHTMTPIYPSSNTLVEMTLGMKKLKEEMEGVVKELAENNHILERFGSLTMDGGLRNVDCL
# [7] = molecular target: Macrophage-stimulating protein receptor (Homo sapiens, UniProt Q04912)
# Note: in the data inactive means no Kd found up to 30 µM.
# 26S proteasome regulatory subunit 6B, sequence (P43686 whole entry): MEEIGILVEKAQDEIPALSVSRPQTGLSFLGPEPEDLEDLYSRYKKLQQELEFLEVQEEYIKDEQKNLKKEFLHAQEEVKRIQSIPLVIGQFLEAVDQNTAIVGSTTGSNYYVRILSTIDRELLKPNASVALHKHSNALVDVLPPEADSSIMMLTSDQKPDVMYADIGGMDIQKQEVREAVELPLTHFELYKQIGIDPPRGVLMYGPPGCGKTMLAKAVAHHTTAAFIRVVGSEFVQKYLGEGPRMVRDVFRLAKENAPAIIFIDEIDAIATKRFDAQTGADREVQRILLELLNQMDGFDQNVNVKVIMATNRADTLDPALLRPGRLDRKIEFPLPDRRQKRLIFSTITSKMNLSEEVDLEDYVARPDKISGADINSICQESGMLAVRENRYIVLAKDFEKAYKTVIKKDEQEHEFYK
# Macrophage-stimulating protein receptor, sequence (Q04912 25-304 limits assumed): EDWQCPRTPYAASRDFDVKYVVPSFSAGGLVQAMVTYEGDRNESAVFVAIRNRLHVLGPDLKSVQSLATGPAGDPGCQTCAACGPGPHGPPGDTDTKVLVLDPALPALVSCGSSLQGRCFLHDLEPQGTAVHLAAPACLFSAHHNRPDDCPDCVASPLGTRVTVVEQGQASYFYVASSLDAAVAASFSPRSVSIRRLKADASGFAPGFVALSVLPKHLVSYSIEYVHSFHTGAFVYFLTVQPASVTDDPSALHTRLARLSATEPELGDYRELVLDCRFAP
# Macrophage-stimulating protein receptor, sequence (Q04912 310-1400 limits assumed): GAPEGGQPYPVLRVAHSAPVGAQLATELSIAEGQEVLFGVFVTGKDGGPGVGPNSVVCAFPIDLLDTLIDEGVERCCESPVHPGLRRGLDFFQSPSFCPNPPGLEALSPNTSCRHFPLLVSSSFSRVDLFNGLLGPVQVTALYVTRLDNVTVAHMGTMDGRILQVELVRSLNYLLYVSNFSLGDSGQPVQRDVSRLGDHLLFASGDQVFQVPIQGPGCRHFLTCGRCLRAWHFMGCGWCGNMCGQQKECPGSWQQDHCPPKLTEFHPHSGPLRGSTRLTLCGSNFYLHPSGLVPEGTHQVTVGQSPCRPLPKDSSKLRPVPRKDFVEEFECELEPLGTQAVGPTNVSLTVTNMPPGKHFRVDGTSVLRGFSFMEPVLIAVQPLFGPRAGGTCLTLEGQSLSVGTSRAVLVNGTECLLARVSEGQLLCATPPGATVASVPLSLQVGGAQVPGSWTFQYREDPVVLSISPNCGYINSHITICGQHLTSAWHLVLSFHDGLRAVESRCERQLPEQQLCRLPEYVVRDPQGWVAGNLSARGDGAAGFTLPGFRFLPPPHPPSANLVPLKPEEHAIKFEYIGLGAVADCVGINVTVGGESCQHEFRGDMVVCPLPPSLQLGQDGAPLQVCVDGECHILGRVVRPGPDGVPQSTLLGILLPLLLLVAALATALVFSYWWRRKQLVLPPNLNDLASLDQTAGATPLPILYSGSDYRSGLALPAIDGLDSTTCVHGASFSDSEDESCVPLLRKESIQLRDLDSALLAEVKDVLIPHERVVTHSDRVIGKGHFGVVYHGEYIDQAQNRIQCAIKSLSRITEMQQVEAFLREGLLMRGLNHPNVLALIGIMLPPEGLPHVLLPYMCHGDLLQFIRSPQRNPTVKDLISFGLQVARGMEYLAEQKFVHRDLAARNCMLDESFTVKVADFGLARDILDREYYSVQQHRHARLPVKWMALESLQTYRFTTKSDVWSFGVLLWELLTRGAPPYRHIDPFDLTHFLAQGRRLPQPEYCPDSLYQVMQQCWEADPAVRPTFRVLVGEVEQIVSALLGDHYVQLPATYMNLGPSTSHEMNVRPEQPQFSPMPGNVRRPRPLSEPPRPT
# Receptor-interacting serine/threonine-protein kinase 2, sequence (O43353 whole entry): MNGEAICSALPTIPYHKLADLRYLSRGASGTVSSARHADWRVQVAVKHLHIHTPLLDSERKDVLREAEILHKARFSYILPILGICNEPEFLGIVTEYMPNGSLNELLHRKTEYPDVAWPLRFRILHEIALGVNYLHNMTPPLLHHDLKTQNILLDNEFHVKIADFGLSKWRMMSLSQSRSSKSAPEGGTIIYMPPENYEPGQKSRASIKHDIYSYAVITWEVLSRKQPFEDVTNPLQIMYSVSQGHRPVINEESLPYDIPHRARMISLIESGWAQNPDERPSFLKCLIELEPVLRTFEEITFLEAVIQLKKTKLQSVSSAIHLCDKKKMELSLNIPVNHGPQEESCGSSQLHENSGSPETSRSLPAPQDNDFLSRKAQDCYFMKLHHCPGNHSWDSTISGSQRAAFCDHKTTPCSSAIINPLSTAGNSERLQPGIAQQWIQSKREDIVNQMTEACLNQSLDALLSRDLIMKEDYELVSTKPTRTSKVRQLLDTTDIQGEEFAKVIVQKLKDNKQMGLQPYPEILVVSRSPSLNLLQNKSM
# Mitogen-activated protein kinase kinase kinase kinase 5, sequence (Q9Y4K4 whole entry): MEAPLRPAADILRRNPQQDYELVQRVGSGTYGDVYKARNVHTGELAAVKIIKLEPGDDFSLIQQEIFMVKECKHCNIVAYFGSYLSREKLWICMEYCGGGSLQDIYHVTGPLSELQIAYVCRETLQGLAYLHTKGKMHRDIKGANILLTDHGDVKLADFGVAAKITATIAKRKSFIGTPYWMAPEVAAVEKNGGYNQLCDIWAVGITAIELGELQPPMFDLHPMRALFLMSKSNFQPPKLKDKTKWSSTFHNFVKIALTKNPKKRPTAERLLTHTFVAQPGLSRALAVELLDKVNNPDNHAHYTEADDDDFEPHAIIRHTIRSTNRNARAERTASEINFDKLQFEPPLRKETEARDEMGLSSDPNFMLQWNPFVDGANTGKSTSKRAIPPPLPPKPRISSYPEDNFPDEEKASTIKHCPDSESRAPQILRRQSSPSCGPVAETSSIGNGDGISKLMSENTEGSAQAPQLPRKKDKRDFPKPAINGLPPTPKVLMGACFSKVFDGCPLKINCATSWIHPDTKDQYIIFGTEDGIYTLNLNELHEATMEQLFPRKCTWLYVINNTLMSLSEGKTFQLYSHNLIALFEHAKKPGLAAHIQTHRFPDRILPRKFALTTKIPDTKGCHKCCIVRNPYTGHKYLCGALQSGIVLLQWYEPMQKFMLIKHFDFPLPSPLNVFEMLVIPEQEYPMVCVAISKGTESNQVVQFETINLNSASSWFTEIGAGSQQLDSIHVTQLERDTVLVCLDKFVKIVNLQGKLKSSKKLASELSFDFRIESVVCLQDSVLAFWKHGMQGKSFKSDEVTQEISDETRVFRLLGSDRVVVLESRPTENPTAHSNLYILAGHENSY
Structure (SMILES),Kd [1],Kd [2],Kd [3],Kd [4],Kd [5],Kd [6],Kd [7]
C[C@@H](Oc1cc(C(=O)Nc2ccc(C(=O)N3CCN(C)CC3)cc2)nnc1N)c1c(Cl)ccc(F)c1Cl,> 30 µM (inactive),> 30 µM (inactive),0.122 µM (active),20.9 µM (active),> 30 µM (inactive),> 30 µM (inactive),> 30 µM (inactive)
C[C@H]1CNCCCN1S(=O)(=O)c1cccc2cncc(F)c12,> 30 µM (inactive),> 30 µM (inactive),> 30 µM (inactive),> 30 µM (inactive),> 30 µM (inactive),> 30 µM (inactive),> 30 µM (inactive)
CC(=O)c1cnc2ccc(-c3cc(Cl)c(O)c(Cl)c3)nc2c1N[C@H]1CC[C@H](CN(C)C)CC1,> 30 µM (inactive),> 30 µM (inactive),,0.071 µM (active),0.005 µM (active),,0.311 µM (active)
CCNC(=O)C#Cc1ccc2c(c1)NC(=O)/C2=C(\Nc1ccc(CN(C)C)cc1)c1ccccc1,,> 30 µM (inactive),> 30 µM (inactive),1.36 µM (active),> 30 µM (inactive),0.759 µM (active),> 30 µM (inactive)
C=CC(=O)N1CCC[C@H](n2c(=O)n(-c3ccc(Oc4ccccc4)cc3)c3c(N)ncnc32)C1,> 30 µM (inactive),> 30 µM (inactive),> 30 µM (inactive),> 30 µM (inactive),0.007 µM,> 30 µM (inactive),> 30 µM (inactive)
Cc1nc2cc(-c3nn(C(C)C)c4ncnc(N)c34)ccc2o1,> 30 µM (inactive),> 30 µM (inactive),15.9 µM (active),> 30 µM (inactive),0.178 µM (active),> 30 µM (inactive),> 30 µM (inactive)
COCc1c(-c2ccc(NC(=O)Nc3cc(C(F)(F)F)ccc3F)c(F)c2)c2c(N)ncnn2c1CN1CCOCC1,> 30 µM (inactive),> 30 µM (inactive),4.16 µM (active),> 30 µM (inactive),> 30 µM (inactive),> 30 µM (inactive),> 30 µM (inactive)
COc1cc(Nc2ncc3c(n2)-c2ccc(Cl)cc2C(c2c(F)cccc2OC)=NC3)ccc1C(=O)O [ALISERTIB],> 30 µM (inactive),> 30 µM (inactive),,,> 30 µM (inactive),,
CNC(=O)c1ccccc1Sc1ccc2c(/C=C/c3ccccn3)n[nH]c2c1 [AXITINIB],,> 30 µM (inactive),,,,,
NC(=O)Nc1cc(-c2cccc(F)c2)sc1C(=O)N[C@H]1CCCNC1 [AZD-7762],,> 30 µM (inactive),0.05 µM (active),0.197 µM (active),> 30 µM (inactive),> 30 µM (inactive),> 30 µM (inactive)
CCS(=O)(=O)N1CCN(c2ccc(Nc3ncc(C(N)=O)c(NC4CC4)n3)cc2)CC1 [Cerdulatinib Hydrochloride],> 30 µM (inactive),> 30 µM (inactive),> 30 µM (inactive),19.2 µM (active),> 30 µM (inactive),,> 30 µM (inactive)
Cn1cc(C2=C(c3cn(C4CCN(Cc5ccccn5)CC4)c4ccccc34)C(=O)NC2=O)c2ccccc21 [ENZASTAURIN],,> 30 µM (inactive),,,,,
Cc1[nH]c(/C=C2\C(=O)Nc3ccccc32)c(C)c1CCC(=O)O [ORANTINIB],,> 30 µM (inactive),,,> 30 µM (inactive),1.98 µM (active),> 30 µM (inactive)
CNC(=O)c1cc(Oc2ccc(NC(=O)Nc3cc(C(C)(C)C)nn3-c3ccc4ncccc4c3)c(F)c2)ccn1 [REBASTINIB],> 30 µM (inactive),> 30 µM (inactive),1.06 µM (active),,> 30 µM (inactive),> 30 µM (inactive),0.732 µM (active)
N#CC[C@H](C1CCCC1)n1cc(-c2ncnc3[nH]ccc23)cn1 [RUXOLITINIB],,> 30 µM (inactive),,,,,
CO[C@H]1C[C@@H]2CC[C@@H](C)[C@@](O)(O2)C(=O)C(=O)N2CCCC[C@H]2C(=O)O[C@H]([C@H](C)C[C@@H]2CC[C@@H](O)[C@H](OC)C2)CC(=O)[C@H](C)/C=C(\C)[C@@H](O)[C@@H](OC)C(=O)[C@H](C)C[C@H](C)/C=C/C=C/C=C/1C [SIROLIMUS],,> 30 µM (inactive),> 30 µM (inactive),> 30 µM (inactive),> 30 µM (inactive),> 30 µM (inactive),> 30 µM (inactive)
O=C1NC(=O)[C@@H](c2cn3c4c(cccc24)CCC3)[C@@H]1c1c[nH]c2ccccc12 [TIVANTINIB],,> 30 µM (inactive),> 30 µM (inactive),> 30 µM (inactive),> 30 µM (inactive),> 30 µM (inactive),> 30 µM (inactive)
C[C@@H](NC(=O)c1ncnc(N)c1Cl)c1ncc(C(=O)Nc2cc(C(F)(F)F)c(Cl)cn2)s1 [TOVORAFENIB],,> 30 µM (inactive),> 30 µM (inactive),> 30 µM (inactive),> 30 µM (inactive),> 30 µM (inactive),> 30 µM (inactive)

# Results, then the compound that gave them:
Kd [1],Kd [2],Kd [3],Kd [4],Kd [5],Kd [6],Kd [7],Structure (SMILES)
> 30 µM (inactive),> 30 µM (inactive),4.58 µM (active),2.49 µM (active),0.355 µM (active),> 30 µM (inactive),> 30 µM (inactive),Nc1ncnc2c1c(-c1cccc(OCc3ccccc3)c1)cn2[C@H]1C[C@@H](CN2CCC2)C1 [AEW-541]
> 30 µM (inactive),> 30 µM (inactive),> 30 µM (inactive),,> 30 µM (inactive),,> 30 µM (inactive),O=C(Nc1c[nH]nc1-c1nc2cc(CN3CCOCC3)ccc2[nH]1)NC1CC1 [AT-9283]
,> 30 µM (inactive),,,,,,C[C@@H](Oc1cc(-n2cnc3ccc(CN4CCN(C)CC4)cc32)sc1C(N)=O)c1ccccc1C(F)(F)F [GSK-461364]
> 30 µM (inactive),> 30 µM (inactive),,,0.958 µM (active),,,NC(=O)c1c(OCc2c(F)cc(Br)cc2F)nsc1NC(=O)NCCCCN1CCCC1 [OSI-632]
> 30 µM (inactive),> 30 µM (inactive),> 30 µM (inactive),> 30 µM (inactive),> 30 µM (inactive),,> 30 µM (inactive),Cc1nc(Nc2n[nH]c3c2CN(C(=O)N[C@H](CN(C)C)c2ccccc2)C3(C)C)c2sccc2n1 [PF-03758309]
0.024 µM (active),> 30 µM (inactive),,,> 30 µM (inactive),,,CC(=O)NCC(=O)N1[C@@H]2CC[C@H]1c1ccc(Nc3ncc(C(F)(F)F)c(NC4CCC4)n3)cc12 [PF-03814735]
,> 30 µM (inactive),,,,,,O=C(NOCCO)c1cc(CN2OCCCC2=O)c(F)c(F)c1Nc1ccc(I)cc1F [RO-4987655]
